1 compound from patent US20170311606A1, “SYNERGISTIC BACILLUS THURINGIENSIS SUBSP. KURSTAKI AND FLUBENDIAMIDE MIXTURES FOR BEET ARMYWORM, SOYBEAN LOOPER, CORN EARWORM, AND CABBAGE LOOPER CONTROL” (priority 2016, published 2017) can be followed below.

The subject of one assay is diamondback moth larvae. The assay can be described thus: Leaf dip bioassay, diamondback moth larvae. Type of assay: in vivo. The following applies: Plutella xylostella, foliar, Btk 0.54 ppm, flubendiamide 0.215 ppm, alone or mixed, read-out: % Efficacy.
For another assay, the system named is beet armyworm larvae. The assay can be described thus: Leaf dip bioassay, beet armyworm larvae. Type of assay: in vivo. The note with it: Spodoptera exigua, foliar, alone or mixed, read-out: % Efficacy. As for the experimental part: (§1) The present invention is not limited to the products or formulation types used herein. In each example below, the studies were conducted as follows.
(§2) For these tests, standardized laboratory leaf dip methods were used to inoculate plant material with treatment(s). Dry, treated leaves were placed into Petri dishes (100×25 mm) containing filter paper wetted with 500 μl of distilled H2O (“dH2O”). Each dish was then infested with between 5 and 10 larvae, dependent on species. Efficacy ratings were taken at specified intervals. Synergy ratings were calculated for each test.
(§3) % Cexp=A+B−(AB/100), where % Cexp is the expected efficacy and “in which A and B are the control levels given by the single [insecticides]. […] Adopting a conservative approach, Applicant determined synergy to be present at ratios of >1.15.

A further assay relates to cabbage looper larvae. The assay is described as follows: Leaf dip bioassay, cabbage looper larvae. Type of assay: in vivo. The following applies: Trichoplusia ni, foliar, Btk 0.54 ppm, flubendiamide 0.49 ppm, alone or mixed, read-out: % Efficacy. As for the experimental part:
as §1, §2, §3

In the next assay the test system is sugarcane borer larvae. The assay is described as follows: Leaf dip bioassay, sugarcane borer larvae. Type of assay: in vivo. The note with it: foliar, Btk 0.54 ppm, flubendiamide 2.15 ppm, alone or mixed, read-out: % Efficacy. As for the experimental part: as §1, §2, §3
For assay [1], the system named is southwestern corn borer larvae. The assay is described as follows: Leaf dip bioassay, southwestern corn borer larvae. It counts as in vivo. The note with it: foliar, Btk 0.54 ppm, flubendiamide 0.215 ppm, alone or mixed, read-out: % Efficacy. The procedure:
as §1, §2, §3

The next assay has as its system soybean looper larvae. The assay is described as follows: Leaf dip bioassay, soybean looper larvae. The following applies: foliar, Btk 0.54 ppm, flubendiamide 3.9 ppm, alone or mixed, read-out: % Efficacy. Type of assay: in vivo, Chrysodeixis includens. The procedure:
as §1, §2, §3

For another assay, the system named is corn earworm larvae. The assay can be described thus: Leaf dip bioassay, corn earworm larvae. Type of assay: in vivo. The following applies: Helicoverpa zea, foliar, Btk 0.54 ppm, flubendiamide 0.975 ppm, alone or mixed, read-out: % Efficacy. The procedure:
as §1, §2, §3

Read-outs that look alike come from different tables or passages of the source.

As for `Cc1cc(C(F)(C(F)(F)F)C(F)(F)F)ccc1NC(=O)c1cccc(I)c1C(=O)NC(C)(C)CS(C)(=O)=O` [Flubendiamide, 3-iodo-N′-(2-mesyl-1,1-dimethylethyl)-N-{4-[1,2,2,2-tetrafluoro-1-(trifluoromethyl)ethyl]-o-tolyl}phthalamide], the Emax at 0.215 ppm in the assay on diamondback moth larvae (24 h after treatment) came to 7%; in the assay on diamondback moth larvae (48 h after treatment), 19%; in assay [1] (24 h after treatment) it was 40%; in assay [1] (48 h after treatment) it was 48%. For the same compound, the Emax at 0.49 ppm in the assay on beet armyworm larvae (24 h after treatment) was 6%; in the assay with beet armyworm larvae (48 h after treatment) it was 14%; in the assay on cabbage looper larvae (24 h after treatment) it was 7%; in the assay with cabbage looper larvae (48 h after treatment) it was 19%. Moreover, the Emax at 2.15 ppm was determined as 28% in the assay on sugarcane borer larvae (24 h after treatment) and 40% in the assay with sugarcane borer larvae (48 h after treatment). The Emax at 3.9 ppm with soybean looper larvae (24 h after treatment) turned out to be 4%; with soybean looper larvae (48 h after treatment), 16%. In addition, the Emax at 0.975 ppm with corn earworm larvae (24 h after treatment) worked out at 14%; in the assay with corn earworm larvae (48 h after treatment), 24%.
